Measured values: ChEMBL document CHEMBL1142310, “Design and synthesis of substituted 4-oxo-4,5,6,7-tetrahydropyrazolo[1,5-a]pyrazine-2-carboxamides, novel HIV-1 integrase inhibitors” (Bioorg Med Chem Lett, 2008)

How the values were obtained:
[1] = Inhibition of HIV1 integrase strand transfer activity; parameters: species or system Human immunodeficiency virus 1
[2] = tested on: Human immunodeficiency virus 1; experiment: Antiviral activity against HIV1 infected MT4 cells in presence of 50% NHS; format: functional, organism-based; details: Human immunodeficiency virus 1, MT4
[3] = tested on: Human immunodeficiency virus 1; experiment: Antiviral activity against HIV1 infected MT4 cells in presence of 10% FBS; format: functional; details: Human immunodeficiency virus 1, MT4

Structure (SMILES)	IC50 [1] [nM]	IC50 [2] [nM]	IC95 [3] [nM]	IC95 [2] [nM]
CNC(=O)c1nn2c(c1O)C(=O)N(Cc1ccc(F)cc1)CC2	40	> 10000	5000	
CNC(=O)c1cc(F)ccc1CNC(=O)c1nn2c(c1O)C(=O)N(C)C[C@@H]2c1ccccc1	74		63	63
CN1CC(c2csc(N)n2)n2nc(C(=O)NCc3ccc(F)cc3)c(O)c2C1=O (stereo not given)	≤ 10		500	1000
CC1CN(C)C(=O)c2c(O)c(C(=O)NCc3ccc(F)cc3)nn21 (stereo not given)	13			
CN1CCCn2nc(C(=O)NCc3ccc(F)cc3)c(O)c2C1=O	470			
CN1CCn2cc(C(=O)NCc3ccc(F)cc3)c(O)c2C1=O	400			
CNC(=O)c1cccc(C2CN(C)C(=O)c3c(O)c(C(=O)NCc4ccc(F)cc4)nn32)c1 (stereo not given)	≤ 10		1000	1000
CC1Cn2nc(C(=O)NCc3ccc(F)cc3)c(O)c2C(=O)N1C (stereo not given)	40			
CNC(=O)c1cc(F)ccc1CNC(=O)c1nn2c(c1O)C(=O)N(C)C[C@H]2c1ccccc1	62		250	250
CN1C(=O)c2c(O)c(C(=O)NCc3ccc(F)cc3)nn2CC1c1ccccc1 (stereo not given)	110			
CC(C)C1CN(C)C(=O)c2c(O)c(C(=O)NCc3ccc(F)cc3)nn21 (stereo not given)	20		63	250
CNC(=O)c1nn2c(c1O)C(=O)N(Cc1ccc(F)cc1)CC2c1ccccc1 (stereo not given)	130		10000	> 10000
CN1CCn2nc(C(=O)NCc3ccc(F)cc3)c(O)c2C1=O	≤ 10		630	2500
CN1CC(c2ccccc2)n2nc(C(=O)NCc3ccc(F)cc3)c(O)c2C1=O (stereo not given)	≤ 10		50	310
CN1CC(c2cccnc2)n2nc(C(=O)NCc3ccc(F)cc3)c(O)c2C1=O (stereo not given)	≤ 10		250	500
